Test [1] deals with T1, menin/MLL (terbium chelate-labeled menin, FITC-MBM1 peptide) (Homo sapiens, UniProt O00255, T541A).
T1 construct: Menin (a.a 1-610-6xhis tag, 2.3 mg/mL in 20 mM Hepes)
T1 sequence (O00255 with tags, fused parts or gaps T541A): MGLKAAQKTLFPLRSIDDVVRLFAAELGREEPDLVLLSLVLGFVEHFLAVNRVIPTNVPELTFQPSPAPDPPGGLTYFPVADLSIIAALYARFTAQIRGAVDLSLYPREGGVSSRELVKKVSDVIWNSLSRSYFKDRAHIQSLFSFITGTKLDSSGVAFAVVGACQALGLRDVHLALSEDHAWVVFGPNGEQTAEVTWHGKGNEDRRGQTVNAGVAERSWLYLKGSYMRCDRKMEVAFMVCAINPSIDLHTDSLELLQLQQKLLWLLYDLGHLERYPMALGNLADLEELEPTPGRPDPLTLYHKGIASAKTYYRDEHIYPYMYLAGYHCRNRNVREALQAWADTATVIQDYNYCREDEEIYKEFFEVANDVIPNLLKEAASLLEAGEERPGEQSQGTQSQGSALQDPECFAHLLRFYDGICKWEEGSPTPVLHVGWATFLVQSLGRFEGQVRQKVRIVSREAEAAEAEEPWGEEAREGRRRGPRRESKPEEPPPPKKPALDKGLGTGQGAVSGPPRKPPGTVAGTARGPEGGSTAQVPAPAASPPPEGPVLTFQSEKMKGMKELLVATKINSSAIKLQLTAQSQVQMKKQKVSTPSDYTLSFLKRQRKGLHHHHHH
Kind of test: Menin/MLL homogenous time-resolved fluorescence (HTRF) assay. It counts as binding. Particulars: 30 min incubation. The procedure: 1) Menin/MLL Homogenous Time-Resolved Fluorescence (HTRF) Assay
To an untreated, white 384-well microtiter plate was added 40 nL 200× test compound in DMSO and 4 μL 2× terbium chelate-labeled menin (vide infra for preparation) in assay buffer (40 mM Tris HCl, pH 7.5, 50 mM NaCl. 1 mM DTT (dithiothreitol) and 0.05% Pluronic F-127). After incubation of test compound and terbium chelate-labeled menin for 30 min at ambient temperature, 4 μL 2×FITC-MBM1 peptide (FITC-β-alanine-[…]-NH2) (“FITC” means fluorescein isothiocyanate) in assay buffer was added, the microtiter plate centrifuged at 1000 rpm for 1 min and the assay mixtures incubated for 15 min at ambient temperature. The relative amount of menin FITC-MBM1 complex present in an assay mixture is determined by measuring the homogenous time-resolved fluorescence (HTRF) of the terbium/FITC donor/acceptor fluorphore pair using an EnVision microplate reader (ex. 337 nm/terbium em. 490 nm/FITC em. 520 nm) at ambient temperature. The degree of fluorescence resonance energy transfer (the HTRF value) is expressed as the ratio of the fluorescence emission intensities of the FITC and terbium fluorophores (F^em520 nm/F^em490 nm). The final concentrations of reagents in the binding assay are […] terbium chelate-labeled menin, 75 nM FITC-MBM1 peptide and 0.5% DMSO in assay buffer. Dose-response titrations of test compounds are conducted using an 11 point, four-fold serial dilution scheme, starting typically at 10 μM.
Compound potencies were determined by first calculating % inhibition at each compound concentration according to equation 1:
% inhibition=((HC−LC)−(HTRF^compound−LC))/(HC−LC))*100 (Eqn 1)
Where LC and HC are the HTRF values of the assay in the presence or absence of a saturating concentration of a compound that competes with FITC-MBM1 for binding to menin, and HTRF^compound is the measured HTRF value in the presence of the test compound. HC and LC HTRF values represent an average of at least 10 replicates per plate.
% inhibition=Bottom+(Top−Bottom)/(1+10^((log/C50−log[cmpd])*h)) (Eqn 2)
Where Bottom and Top are the lower and upper asymptotes of the dose-response curve, respectively, IC50 is the concentration of compound that yields 50% inhibition of signal and h is the Hill coefficient.
Preparation of Terbium cryptate labeling of Menin: Menin (a.a 1-610-6xhis tag, 2.3 mg/mL in 20 mM Hepes (2-[4-(2-Hydroxyethyl)-1-piperazinyl]ethane sulfonic acid), 80 mM NaCl, 5 mM DTT (Dithiothreitol), pH 7.5) was labeled with terbium cryptate as follows. 200 μg of Menin was buffer exchanged into 1×Hepes buffer. 6.67 μM Menin was incubated with 8-fold molar excess NHS (N-hydroxysuccinimide)-terbium cryptate for 40 minutes at room temperature. Half of the labeled protein was purified away from free label by running the reaction over a NAP5 column with elution buffer (0.1M Hepes, pH 7+0.1% BSA (bovine serum albumin)). The other half was eluted with 0.1 M phosphate buffered saline (PBS), pH7. 400 μl of eluent was collected for each, aliquoted and frozen at −80° C. The final concentration of terbium-labeled Menin protein was 115 μg/mL in Hepes buffer and 85 μg/mL in PBS buffer, respectively.
In general terms: Time-resolved FRET reads energy transfer from a long-lived donor to a nearby acceptor.

A further test deals with MEIS1 mRNA expression. Put plainly: MEIS1 mRNA expression assay (Quantigene Singleplex) in MOLM14 cells. It counts as cell-based, human. Particulars: Homo sapiens, MOLM-14, 48 h, 48 hours incubation. The procedure: 2b) MEIS1 mRNA Expression Assay
MEIS1 mRNA expression upon treatment of compound was examined by Quantigene Singleplex assay (Thermo Fisher Scientific). This technology allows for direct quantification of mRNA targets using probes hybridizing to defined target sequences of interest and the signal is detected using a Multimode plate reader Envision (PerkinElmer). The MOLM14 cell line was used for this experiment. Cells were plated in 96-well plates at 3,750 cells/well in the presence of increasing concentrations of compounds. After incubation of 48 hours with compounds, cells were lysed in lysis buffer and incubated for 45 minutes at 55° C. Cell lysates were mixed with human MEIS specific capture probe or human RPL28 (Ribosomal Protein L28) specific probe as a normalization control, as well as blocking probes. Cell lysates were then transferred to the custom assay hybridization plate (Thermo Fisher Scientific) and incubated for 18 to 22 hours at 55° C. Subsequently, plates were washed to remove unbound materials followed by sequential addition of preamplifiers, amplifiers, and label probe. Signals (═gene counts) were measured with a Multimode plate reader Envision. IC50S were calculated by dose-response modelling using appropriate software. For all non-housekeeper genes response equal counts corrected for background and relative expression. For each sample, each test gene signal (background subtracted) was divided by the normalization gene signal (RPL28: background subtracted). Fold changes were calculated by dividing the normalized values for the treated samples by the normalized values for the DMSO treated sample. Fold changes of each target gene were used for the calculation of IC50S.

Molecules are shown by their SMILES. pIC50: −log10 of the molar value. Some results are limits rather than exact numbers.

As for `COCCNCCCC(C(C)C)N1CC[C@@H](Cc2cn(-c3ccc(F)cc3C(=O)N(C)C(C)C)c3cncc(C)c23)C1` (mixture of isomers) [Compound 14], the pIC50 (as a rule, −log10 of the IC50, conventionally taken in molar units) is 10.27 in test [1] and above 8.44 in the test on MEIS1 mRNA expression.
For `COCCNCCCC(C(C)C)N1CC[C@H](Cc2cn(-c3ccc(F)cc3C(=O)N(C)C(C)C)c3cncc(C)c23)C1` (mixture of isomers) [Compound 15], in that order: 10.40 and above 9.10.
For `CCC(CCCN1C[C@H]2CN(C(C)=O)C[C@@H]2C1)N1CC[C@@H](Cc2cn(-c3ccc(F)cc3C(=O)N(C)C(C)C)c3cncc(C)c23)C1` (mixture of isomers) [Compound 16], in that order: 10.29 and 7.15.
`CCC(CCCN1C[C@H]2CN(C(C)=O)C[C@@H]2C1)N1CC[C@H](Cc2cn(-c3ccc(F)cc3C(=O)N(C)C(C)C)c3cncc(C)c23)C1` (mixture of isomers) [Compound 17]: the results for the pIC50 (in test [1]; in the test with MEIS1 mRNA expression) were 10.51 and 7.32, respectively.
As to `CC(=O)N1C[C@@H]2CN([C@H]3C[C@@H](C(C(C)C)N4CC[C@@H](Cc5cn(-c6ccc(F)cc6C(=O)N(C)C(C)C)c6cncc(C)c56)C4)C3)C[C@H]2C1` (mixture of isomers) [Compound 20], the pIC50 in test [1] is around 9.72; with MEIS1 mRNA expression, above 8.77.
In the case of `CCC([C@H]1C[C@@H](N2C[C@H]3CN(C(C)=O)C[C@@H]3C2)C1)N1CC[C@@H](Cc2cn(-c3ccc(F)cc3C(=O)N(C)C(C)C)c3cncc(C)c23)C1` (mixture of isomers) [Compound 22], the pIC50 in test [1] was 10.62; in the test on MEIS1 mRNA expression it was around 7.96.
The corresponding values for `CCC([C@H]1C[C@@H](N2C[C@H]3CN(C(C)=O)C[C@@H]3C2)C1)N1CC[C@H](Cc2cn(-c3ccc(F)cc3C(=O)N(C)C(C)C)c3cncc(C)c23)C1` (mixture of isomers) [Compound 23] are 10.15 and 8.15.
As for `CCC([C@H]1C[C@@H](N2CCN(C(C)=O)CC2)C1)N1CC[C@H](Cc2cn(-c3ccc(F)cc3C(=O)N(C)C(C)C)c3cncc(C)c23)C1` (mixture of isomers) [Compound 25], the negative-log IC50 (pIC50) in test [1] is 10.06; in the test with MEIS1 mRNA expression, 7.04.
As to `CC(=O)N1C[C@@H]2CN([C@H]3C[C@@H](C(C)N4CC[C@@H](Cc5cn(-c6ccc(F)cc6C(=O)N(C)C(C)C)c6cncc(C)c56)C4)C3)C[C@H]2C1` (mixture of isomers) [Compound 28], the negative logarithm of the IC50 (pIC50) was 10.26 in test [1] and 6.97 with MEIS1 mRNA expression.
The corresponding values for `Cc1cncc2c1c(C[C@@H]1CCN(C(C)C3CCOCC3)C1)cn2-c1ccc(F)cc1C(=O)N(C)C(C)C` (mixture of isomers) [Compound 48] are 10.22 and 7.70.
In the case of `Cc1cncc2c1c(C[C@H]1CCN(CC3CCCC(=O)N3)C1)cn2-c1ccc(F)cc1C(=O)N(C)C(C)C` (mixture of isomers) [Compound 89], the pIC50 in test [1] was 9.74; in the test on MEIS1 mRNA expression, around 6.05.
`Cc1cncc2c1c(C[C@@H]1CCN(C3CCNC(=O)CC3)C1)cn2-c1ccc(F)cc1C(=O)N(C)C(C)C` (mixture of isomers) [Compound 139]: the negative logarithm of the IC50 (pIC50) in test [1] is 9.92; in the test with MEIS1 mRNA expression, 6.35.
With `CC(=O)N1CCCC(N2CC[C@@H](Cc3cn(-c4ccc(F)cc4C(=O)N(C)C(C)C)c4cncc(C)c34)C2)C1` (mixture of isomers) [Compound 215], the pIC50 in test [1] was 9.54; in the test with MEIS1 mRNA expression, 6.52.
For `CC(=O)N1CCCC(N2CC[C@@H](Cc3cn(-c4ccc(F)cc4C(=O)N(C)C(C)C)c4cncc(C)c34)C2)CC1` (mixture of isomers) [Compound 216], in that order: 9.73 and 7.00.
The corresponding values for `CC(=O)N1CCCC(N2CC[C@H](Cc3cn(-c4ccc(F)cc4C(=O)N(C)C(C)C)c4cncc(C)c34)C2)CC1` (mixture of isomers) [Compound 222] are 9.99 and 6.59.
